Test results as given in patent publication US9518015B2, “EP1 receptor ligands” (LABORATORIOS DEL DR. ESTEVE, S.A., priority 2011, dated 2016).

These molecules were tested against T1, human EP1 receptor (Homo sapiens, UniProt P34995) (assay: Test 2: Measurement of IP1 responses by HTRF, suspended HEK-293 cells stably expressing human EP1 receptors, PGE2 30 nM). Conditions: HEK293, at 10 μM, read-out: Results of Test 2 (Functional assay), % inh.
T1 sequence (P34995 1-402): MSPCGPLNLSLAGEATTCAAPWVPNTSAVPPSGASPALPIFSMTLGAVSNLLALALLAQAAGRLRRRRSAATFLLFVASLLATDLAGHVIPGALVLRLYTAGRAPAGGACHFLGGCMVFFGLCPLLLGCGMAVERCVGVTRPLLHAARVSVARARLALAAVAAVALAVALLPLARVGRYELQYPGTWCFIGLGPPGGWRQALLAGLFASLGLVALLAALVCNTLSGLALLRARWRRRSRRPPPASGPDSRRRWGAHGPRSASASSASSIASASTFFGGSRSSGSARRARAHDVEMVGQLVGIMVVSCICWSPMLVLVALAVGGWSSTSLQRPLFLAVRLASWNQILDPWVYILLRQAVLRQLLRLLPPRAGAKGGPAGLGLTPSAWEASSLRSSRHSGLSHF
Type: cell-based
Set-up: expressed in transfected cells
Description: Test 2: Measurement of IP1 responses by Homogeneous Time Resolved Fluorescence
IP1 measurements on HEK-293 cells that stably expressed human EP1 receptors were performed by using a system based on Homogeneous Time Resolved Fluorescense (HTRF) (Gabriel et al., 2003). This technology allows the direct measurement of IP1 in living cells. The principle of this assay is based on competition between IP1 produced by cells and IP1-d2 conjugate for the binding with monoclonal anti-IP1-cryptate conjugate. The HTRF IP1 kit from CisBio was used according to the manufacturer's directions. The experimental procedure was performed as stated below.
Suspended cells (30,000 cells per well) were added to 96-well culture plates in 40 μl of stimulation buffer (supplied by the kit). Compounds were then added in 20 μl of stimulation buffer and incubated at 37° C. for 15 minutes followed by 10 μl of PGE2 to a final concentration of […]. After 90 minutes at 37° C., the reaction was stopped lysing the cells with a mixture of 15 μl of cryptate and 15 μl of IP1-d2 prepared in the lysis buffer supplied by the manufacturer. Plates were incubated for an additional hour at room temperature and read at 665 nm/620 nm using an UltraEvolution Plate reader (Tecan).
Antagonist percentage inhibition was calculated relating compounds activity to the 0% inhibition of the wells incubated with 10 nM PGE2 alone and 100% inhibition of the wells incubated with 10 nM PGE2 plus 1 μM of the reference antagonist.

| SMILES | inhibition at 10 µM [%] |
| --- | --- |
| O=C(O)c1cccc2c1ccn2Cc1cc(F)ccc1OCc1ccc(F)cc1C(F)(F)F [Example 18, 1-(5-fluoro-2-((4-fluoro-2-(trifluoromethyl)benzyl)oxy)benzyl)-1H-indole-4-carboxylic acid] | > 75 |
| CC(Oc1ccc(Cl)cc1Cn1ccc2c(C(=O)O)cccc21)c1ccc(F)cc1F (stereo not drawn) [Example 23] | > 75 |
| O=C(O)c1cccc2c1ccn2Cc1cc(Cl)cc(Br)c1OCc1ccc(Br)cc1F [Example 28, 1-(3-bromo-2-((4-bromo-2-fluorobenzyl)oxy)-5-chlorobenzyl)-1H-indole-4-carboxylic acid] | 45 to 75 |
| O=C(O)c1cccc2c1ccn2Cc1cc(F)ccc1OCc1ccc(F)cc1 [Example 35, 1-(5-fluoro-2-((4-fluorobenzyl)oxy)benzyl)-1H-indole-4-carboxylic acid] | > 75 |
| O=C(O)c1cccc2c1ccn2Cc1cc(F)ccc1OCc1cc(F)c(F)cc1Cl [Example 36, 1-(2-((2-chloro-4,5-difluorobenzyl)oxy)-5-fluorobenzyl)-1H-indole-4-carboxylic acid] | 45 to 75 |
| O=C(O)c1cccc2c1ccn2Cc1cc(C(F)(F)F)ccc1OCc1c(F)cccc1F [Example 37, 1-(2-((2,6-difluorobenzyl)oxy)-5-(trifluoromethyl)benzyl)-1H-indole-4-carboxylic acid] | > 75 |
| O=C(O)c1cccc2c1ccn2Cc1cc(F)ccc1OCc1cc(F)ccc1Cl [Example 38, 1-(2-((2-chloro-5-fluorobenzyl)oxy)-5-fluorobenzyl)-1H-indole-4-carboxylic acid] | > 75 |
| O=C(O)c1cccc2c1ccn2Cc1cc(C(F)(F)F)ccc1OCc1cc(F)ccc1F [Example 39, 1-(2-((2,5-difluorobenzyl)oxy)-5-(trifluoromethyl)benzyl)-1H-indole-4-carboxylic acid] | > 75 |
| O=C(O)c1cccc2c1ccn2Cc1cc(Cl)cc(Br)c1OCc1c(F)cccc1F [Example 40, 1-(3-bromo-5-chloro-2-((2,6-difluorobenzyl)oxy)benzyl)-1H-indole-4-carboxylic acid] | 45 to 75 |
| O=C(O)c1cccc2c1ccn2Cc1cc(Cl)ccc1OCc1cc(F)cc(F)c1 [Example 41, 1-(5-chloro-2-((3,5-difluorobenzyl)oxy)benzyl)-1H-indole-4-carboxylic acid] | > 75 |
| CC(c1cc(Cl)ccc1OCc1ccc(Cl)cc1F)n1ccc2c(C(=O)O)cccc21 (stereo not drawn) [Example 42, 1-(1-(5-chloro-2-((4-chloro-2-fluorobenzyl)oxy)phenyl)ethyl)-1H-indole-4-carboxylic acid] | > 75 |
| O=C(O)c1cccc2c1ccn2Cc1cc(Cl)ccc1OCc1ccc(F)cc1F [Example 43, 1-(5-chloro-2-((2,4-difluorobenzyl)oxy)benzyl)-1H-indole-4-carboxylic acid] | > 75 |
| O=C(O)c1cccc2c1ccn2Cc1cc(Cl)ccc1OCc1ccc(Br)cc1F [Example 46, 1-(2-((4-bromo-2-fluorobenzyl)oxy)-5-chlorobenzyl)-1H-indole-4-carboxylic acid] | > 75 |
| O=C(O)c1cccc2c1ccn2Cc1cc(C(F)(F)F)ccc1OCc1ccccc1F [Example 52, 1-(2-((2-fluorobenzyl)oxy)-5-(trifluoromethyl)benzyl)-1H-indole-4-carboxylic acid] | > 75 |
| O=C(O)c1cccc2c1ccn2Cc1cc(F)ccc1OCc1ccc(F)cc1F [Example 53, 1-(2-((2,4-difluorobenzyl)oxy)-5-fluorobenzyl)-1H-indole-4-carboxylic acid] | > 75 |
| O=C(O)c1cccc2c1ccn2Cc1cc(Cl)ccc1OCc1c(F)cc(Br)cc1F [Example 58, 1-(2-((4-bromo-2,6-difluorobenzyl)oxy)-5-chlorobenzyl)-1H-indole-4-carboxylic acid] | > 75 |
| O=C(O)c1cccc2c1ccn2Cc1cc(Cl)cc(Cl)c1OCc1ccc(Cl)cc1F [Example 59, 1-(3,5-dichloro-2-((4-chloro-2-fluorobenzyl)oxy)benzyl)-1H-indole-4-carboxylic acid] | 45 to 75 |
| O=C(O)c1cccc2c1ccn2Cc1cc(Br)ccc1OCc1c(F)cc(Cl)cc1F [Example 60, 1-(5-bromo-2-((4-chloro-2,6-difluorobenzyl)oxy)benzyl)-1H-indole-4-carboxylic acid] | > 75 |

| SMILES | inhibition at 10 µM [%] |
| --- | --- |
| O=C(O)c1cccc2c1ccn2Cc1ncccc1OCc1ccc(Cl)cc1F [Example 61, 1-((3-((4-chloro-2-fluorobenzyl)oxy)pyridin-2-yl)methyl)-1H-indole-4-carboxylic acid] | 45 to 75 |
| O=C(O)c1cccc2c1ccn2Cc1cc(Cl)ccc1CCc1ccc(Cl)cc1F [Example 63, 1-(5-chloro-2-(4-chloro-2-fluorophenethyl)benzyl)-1H-indole-4-carboxylic acid] | > 75 |
| O=C(O)c1ccc2c(ccn2Cc2cc(Cl)ccc2OCC2CC2)c1 [Example 64, 1-(5-chloro-2-(cyclopropylmethoxy)benzyl)-1H-indole-5-carboxylic acid] | > 75 |
| O=C(O)c1ccc2c(ccn2Cc2cc(F)ccc2OCc2cc(F)c(F)cc2F)c1 [Example 65] | > 75 |
| O=C(O)c1ccc2c(ccn2Cc2cc(F)ccc2OCc2ccc(F)cc2Cl)c1 [Example 66, 1-(2-((2-chloro-4-fluorobenzyl)oxy)-5-fluorobenzyl)-1H-indole-5-carboxylic acid] | > 75 |
| O=C(O)c1ccc2c(ccn2Cc2cc(Cl)ccc2OCc2ccc(F)cc2C(F)(F)F)c1 [Example 67] | 45 to 75 |
| O=C(O)c1ccc2c(ccn2Cc2cc(Br)ccc2OCc2ccc(F)cc2Cl)c1 [Example 70, 1-(5-bromo-2-((2-chloro-4-fluorobenzyl)oxy)benzyl)-1H-indole-5-carboxylic acid] | > 75 |
| O=C(O)c1ccc2c(ccn2Cc2cc(F)ccc2OCc2cc(F)c(F)c(F)c2)c1 [Example 71, 1-(5-fluoro-2-((3,4,5-trifluorobenzyl)oxy)benzyl)-1H-indole-5-carboxylic acid] | 45 to 75 |
| O=C(O)c1ccc2c(ccn2Cc2cc(F)ccc2OCc2cc(F)c(F)cc2Cl)c1 [Example 72, 1-(2-((2-chloro-4,5-difluorobenzyl)oxy)-5-fluorobenzyl)-1H-indole-5-carboxylic acid] | > 75 |
| O=C(O)c1ccc2c(ccn2Cc2cc(F)ccc2OCc2cc(F)ccc2Cl)c1 [Example 73, 1-(2-((2-chloro-5-fluorobenzyl)oxy)-5-fluorobenzyl)-1H-indole-5-carboxylic acid] | 45 to 75 |
| O=C(O)c1ccc2c(ccn2Cc2cc(Br)ccc2OCc2ccc(F)cc2F)c1 [Example 74, 1-(5-bromo-2-((2,4-difluorobenzyl)oxy)benzyl)-1H-indole-5-carboxylic acid] | 45 to 75 |
| O=C(O)c1ccc2c(ccn2Cc2cc(Cl)ccc2OCc2ccc(Cl)cc2F)c1 [Example 76, 1-(5-chloro-2-((4-chloro-2-fluorobenzyl)oxy)benzyl)-1H-indole-5-carboxylic acid] | 45 to 75 |
| O=C(O)c1ccc2c(ccn2Cc2cc(Cl)ccc2OCc2ccc(F)cc2F)c1 [Example 78] | > 75 |
| O=C(O)/C=C/c1cccc2c1ccn2Cc1cc(C(F)(F)F)ccc1OCc1ccccc1 [Example 79, (E)-3-(1-(2-(benzyloxy)-5-(trifluoromethyl)benzyl)-1H-indol-4-yl)acrylic acid] | > 75 |
| O=C(O)/C=C/c1cccc2c1ccn2Cc1cc(Br)ccc1OCC1CC1 [Example 80, (E)-3-(1-(5-bromo-2-(cyclopropylmethoxy)benzyl)-1H-indol-4-yl)acrylic acid] | > 75 |
| O=C(O)/C=C/c1cccc2c1ccn2Cc1cc(Cl)ccc1OCC1CC1 [Example 81, (E)-3-(1-(5-chloro-2-(cyclopropylmethoxy)benzyl)-1H-indol-4-yl)acrylic acid] | > 75 |
| O=C(O)/C=C/c1cccc2c1ccn2Cc1cc(Cl)ccc1OCc1ccc(F)cc1F [Example 82, (E)-3-(1-(5-chloro-2-((2,4-difluorobenzyl)oxy)benzyl)-1H-indol-4-yl)acrylic acid] | > 75 |

Same assay, conditions: at 10 μM

| SMILES | Results of Test 2 (Functional assay), % inh |
| --- | --- |
| O=C(O)CCc1cccc2c1ccn2Cc1cc(Cl)ccc1OCc1ccc(Cl)cc1F [Example 62, 3-(1-(5-chloro-2-((4-chloro-2-fluorobenzyl)oxy)benzyl)-1H-indol-4-yl)propanoic acid] | $ (% inh > 75) |
